Target: human activated kallikrein enzyme (plasma kallikrein) (Homo sapiens (Human), UniProt P03952)
Experiment: Inhibition of human activated plasma kallikrein, fluorogenic peptide substrate assay, 500 pM enzyme format
Assay type: biochemical
Conditions: 500 pM activated kallikrein enzyme, 300 uM Pro-Phe-Arg-7-amido-4-methylcoumarin substrate, 30 min preincubation, 10 min at RT; read-out: Primary Dose Response Assay: Average EC50
Method in brief: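 Buffer 20 mM Tris pH 7.5, EDTA, NaCl, PEG-400, Triton X-100; 300 uM Pro-Phe-Arg-AMC; enzyme–inhibitor preincubation 30 min RT. Format one: 500 pM kallikrein, 10 min RT reaction; format two: 5 pM kallikrein, 18 h RT reaction. Fluorescence read at 460 nm (380 nm excitation).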

Sequence of human activated kallikrein enzyme (plasma kallikrein) (P03952 391-638): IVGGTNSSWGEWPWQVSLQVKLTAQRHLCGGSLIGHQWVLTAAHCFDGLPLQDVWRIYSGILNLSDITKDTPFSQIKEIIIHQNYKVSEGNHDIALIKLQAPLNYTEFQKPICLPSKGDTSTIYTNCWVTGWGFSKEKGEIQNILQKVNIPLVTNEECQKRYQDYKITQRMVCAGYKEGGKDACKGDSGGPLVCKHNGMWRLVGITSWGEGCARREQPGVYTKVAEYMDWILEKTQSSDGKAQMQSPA
Sequence of human activated kallikrein enzyme (plasma kallikrein) (P03952 20-390 partner): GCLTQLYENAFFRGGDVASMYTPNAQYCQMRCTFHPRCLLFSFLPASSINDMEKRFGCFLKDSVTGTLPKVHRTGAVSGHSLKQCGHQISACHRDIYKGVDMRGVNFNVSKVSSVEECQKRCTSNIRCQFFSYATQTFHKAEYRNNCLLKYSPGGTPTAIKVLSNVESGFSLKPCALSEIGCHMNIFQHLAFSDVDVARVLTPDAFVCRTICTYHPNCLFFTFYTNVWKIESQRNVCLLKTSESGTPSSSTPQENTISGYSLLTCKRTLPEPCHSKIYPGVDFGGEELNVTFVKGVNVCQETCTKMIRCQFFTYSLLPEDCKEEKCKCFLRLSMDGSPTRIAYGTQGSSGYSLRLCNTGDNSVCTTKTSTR

Structure (SMILES)	EC50 [nM]
O=C(NCc1ncn2ccc(Cl)cc12)c1cn(Cc2cn3cc(C4CC4)cc(CCc4nnn[nH]4)c3n2)nn1 [Example I-194, 1-((8-(2-(1H-tetrazol-5-yl)ethyl)-6-cyclopropylimidazo[1,2-a]pyridin-2-yl)methyl)-N-((7-chloroimidazo[1,5-a]pyridin-1-yl)methyl)-1H-1,2,3-triazole-4-carboxamide]	< 1
COC(=O)c1c(Cn2cc(C(=O)NCc3ncn4ccc(Cl)c(F)c34)nn2)[nH]c2cc(C3CC3)ccc12 [Example I-195, methyl 2-((4-(((7-chloro-8-fluoroimidazo[1,5-a]pyridin-1-yl)methyl)carbamoyl)-1H-1,2,3-triazol-1-yl)methyl)-6-cyclopropyl-1H-indole-3-carboxylate]	100 to 2000
O=C(NCc1ncn2ccc(Cl)c(F)c12)c1coc(Cc2cn3cc(C4CC4)ccc3n2)n1 [Example I-196, N-((7-chloro-8-fluoroimidazo[1,5-a]pyridin-1-yl)methyl)-2-((6-cyclopropylimidazo[1,2-a]pyridin-2-yl)methyl)oxazole-4-carboxamide]	1 to 10
O=C(NCc1ncn2ccc(Cl)c(F)c12)c1cn(Cc2cc3ccc(Cl)cc3o2)nn1 [Example I-197, N-((7-chloro-8-fluoroimidazo[1,5-a]pyridin-1-yl)methyl)-1-((6-chlorobenzofuran-2-yl)methyl)-1H-1,2,3-triazole-4-carboxamide]	100 to 2000
CC(c1cn2cc(C3CC3)ccc2n1)n1cc(C(=O)NCc2ncn3ccc(Cl)c(F)c23)nn1 (stereo not shown) [Example I-198, N-((7-chloro-8-fluoroimidazo[1,5-a]pyridin-1-yl)methyl)-1-(1-(6-cyclopropylimidazo[1,2-a]pyridin-2-yl)ethyl)-1H-1,2,3-triazole-4-carboxamide]	< 1
O=C(NCc1ncn2ccc(Cl)c(F)c12)c1cn(Cc2cn3cc(C4CC4)cc(C4CCOC4=O)c3n2)nn1 (stereo not shown) [Example I-199, N-((7-chloro-8-fluoroimidazo[1,5-a]pyridin-1-yl)methyl)-1-((6-cyclopropyl-8-(2-oxotetrahydrofuran-3-yl)imidazo[1,2-a]pyridin-2-yl)methyl)-1H-1,2,3-triazole-4-carboxamide]	< 1
O=C(NCc1ncn2ccc(Br)c(F)c12)c1cn(Cc2cn3cc(C4CC4)cc(F)c3n2)nn1 [Example I-200, N-((7-bromo-8-fluoroimidazo[1,5-a]pyridin-1-yl)methyl)-1-((6-cyclopropyl-8-fluoroimidazo[1,2-a]pyridin-2-yl)methyl)-1H-1,2,3-triazole-4-carboxamide]	< 1
O=C(NCc1ncn2ccc(Cl)c(F)c12)c1cn(Cc2cn3cc(C4CC4)cc(Cn4cccn4)c3n2)nn1 [Example I-201, 1-((8-((1H-pyrazol-1-yl)methyl)-6-cyclopropylimidazo[1,2-a]pyridin-2-yl)methyl)-N-((7-chloro-8-fluoroimidazo[1,5-a]pyridin-1-yl)methyl)-1H-1,2,3-triazole-4-carboxamide]	< 1
O=C(O)c1ccn(Cc2cc(C3CC3)cn3cc(Cn4cc(C(=O)NCc5ncn6ccc(Cl)c(F)c56)nn4)nc23)n1 [Example I-202, 1-((2-((4-(((7-chloro-8-fluoroimidazo[1,5-a]pyridin-1-yl)methyl)carbamoyl)-1H-1,2,3-triazol-1-yl)methyl)-6-cyclopropylimidazo[1,2-a]pyridin-8-yl)methyl)-1H-pyrazole-3-carboxylic acid]	< 1
O=C(NCc1ncn2ccc(Cl)c(F)c12)c1cn(Cc2cn3cc(C4CC4)cc(N4CCCC4=O)c3n2)nn1 [Example I-203, N-((7-chloro-8-fluoroimidazo[1,5-a]pyridin-1-yl)methyl)-1-((6-cyclopropyl-8-(2-oxopyrrolidin-1-yl)imidazo[1,2-a]pyridin-2-yl)methyl)-1H-1,2,3-triazole-4-carboxamide]	< 1
O=C(NCc1ncn2ccc(Cl)c(F)c12)c1cn(Cc2cn3cc(C4CC4)cc(Br)c3n2)nn1 [Example I-204, 1-((8-bromo-6-cyclopropylimidazo[1,2-a]pyridin-2-yl)methyl)-N-((7-chloro-8-fluoroimidazo[1,5-a]pyridin-1-yl)methyl)-1H-1,2,3-triazole-4-carboxamide]	< 1
CCOC(=O)C(C)(C)Cc1cc(C2CC2)cn2cc(Cn3cc(C(=O)NCc4ncn5ccc(Cl)c(F)c45)nn3)nc12 [Example I-205, ethyl 3-(2-((4-(((7-chloro-8-fluoroimidazo[1,5-a]pyridin-1-yl)methyl)carbamoyl)-1H-1,2,3-triazol-1-yl)methyl)-6-cyclopropylimidazo[1,2-a]pyridin-8-yl)-2,2-dimethylpropanoate]	< 1
CC(C)(Cc1cc(C2CC2)cn2cc(Cn3cc(C(=O)NCc4ncn5ccc(Cl)c(F)c45)nn3)nc12)C(=O)O [Example I-206, 3-(2-((4-(((7-chloro-8-fluoroimidazo[1,5-a]pyridin-1-yl)methyl)carbamoyl)-1H-1,2,3-triazol-1-yl)methyl)-6-cyclopropylimidazo[1,2-a]pyridin-8-yl)-2,2-dimethylpropanoic acid]	< 1
CCOC(=O)COc1cc(C2CC2)cn2cc(Cn3cc(C(=O)NCc4ncn5ccc(Cl)c(F)c45)nn3)nc12 [Example I-207, ethyl 2-((2-((4-(((7-chloro-8-fluoroimidazo[1,5-a]pyridin-1-yl)methyl)carbamoyl)-1H-1,2,3-triazol-1-yl)methyl)-6-cyclopropylimidazo[1,2-a]pyridin-8-yl)oxy)acetate]	< 1
O=C(O)COc1cc(C2CC2)cn2cc(Cn3cc(C(=O)NCc4ncn5ccc(Cl)c(F)c45)nn3)nc12 [Example I-208, 2-((2-((4-(((7-chloro-8-fluoroimidazo[1,5-a]pyridin-1-yl)methyl)carbamoyl)-1H-1,2,3-triazol-1-yl)methyl)-6-cyclopropylimidazo[1,2-a]pyridin-8-yl)oxy)acetic acid]	< 1
O=C(NCc1ncn2ccc(Cl)c(F)c12)c1cn(Cc2cc3ncc(C4CC4)cn3n2)nn1 [Example I-209, N-((7-chloro-8-fluoroimidazo[1,5-a]pyridin-1-yl)methyl)-1-((6-cyclopropylpyrazolo[1,5-a]pyrimidin-2-yl)methyl)-1H-1,2,3-triazole-4-carboxamide]	1 to 10
CCOC(=O)c1nnc(Cc2cc(C3CC3)cn3cc(Cn4cc(C(=O)NCc5ncn6ccc(Cl)c(F)c56)nn4)nc23)o1 [Example I-210a, ethyl 5-((2-((4-(((7-chloro-8-fluoroimidazo[1,5-a]pyridin-1-yl)methyl)carbamoyl)-1H-1,2,3-triazol-1-yl)methyl)-6-cyclopropylimidazo[1,2-a]pyridin-8-yl)methyl)-1,3,4-oxadiazole-2-carboxylate]	< 1
O=C(NCc1ncn2ccc(Cl)c(F)c12)c1cn(Cc2cn3cc(C4CC4)cc(Cc4nnco4)c3n2)nn1 [Example I-210b, 1-((8-((1,3,4-oxadiazol-2-yl)methyl)-6-cyclopropylimidazo[1,2-a]pyridin-2-yl)methyl)-N-((7-chloro-8-fluoroimidazo[1,5-a]pyridin-1-yl)methyl)-1H-1,2,3-triazole-4-carboxamide]	< 1
O=C(NCc1ncn2ccc(Cl)c(F)c12)c1cn(Cc2[nH]c3ccc(C4CC4)cc3c2C(F)(F)F)nn1 [Example I-211, N-((7-chloro-8-fluoroimidazo[1,5-a]pyridin-1-yl)methyl)-1-((5-cyclopropyl-3-(trifluoromethyl)-1H-indol-2-yl)methyl)-1H-1,2,3-triazole-4-carboxamide]	10 to 100
CC(C)(Oc1cc(C2CC2)cn2cc(Cn3cc(C(=O)NCc4ncn5ccc(Cl)c(F)c45)nn3)nc12)C(=O)O [Example I-212, 2-((2-((4-(((7-chloro-8-fluoroimidazo[1,5-a]pyridin-1-yl)methyl)carbamoyl)-1H-1,2,3-triazol-1-yl)methyl)-6-cyclopropylimidazo[1,2-a]pyridin-8-yl)oxy)-2-methylpropanoic acid]	< 1
CC(F)c1cc(C2CC2)cn2cc(Cn3cc(C(=O)NCc4ncn5ccc(Cl)c(F)c45)nn3)nc12 (stereo not shown) [Example I-213, N-((7-chloro-8-fluoroimidazo[1,5-a]pyridin-1-yl)methyl)-1-((6-cyclopropyl-8-(1-fluoroethyl)imidazo[1,2-a]pyridin-2-yl)methyl)-1H-1,2,3-triazole-4-carboxamide]	< 1
O=C(NCc1ncn2ccc(Cl)c(F)c12)c1cnn(Cc2cn3cc(C4CC4)cc(Cc4nnco4)c3n2)c1 [Example I-214, 1-((8-((1,3,4-oxadiazol-2-yl)methyl)-6-cyclopropylimidazo[1,2-a]pyridin-2-yl)methyl)-N-((7-chloro-8-fluoroimidazo[1,5-a]pyridin-1-yl)methyl)-1H-pyrazole-4-carboxamide]	< 1
O=C(NCc1ncn2ccc(Cl)c(F)c12)c1cnn(Cc2cn3cc(C4CC4)cc(C4COC4)c3n2)c1 [Example I-215, N-((7-chloro-8-fluoroimidazo[1,5-a]pyridin-1-yl)methyl)-1-((6-cyclopropyl-8-(oxetan-3-yl)imidazo[1,2-a]pyridin-2-yl)methyl)-1H-pyrazole-4-carboxamide]	< 1
O=C(NCc1ncn2ccc(Cl)c(F)c12)c1cn(Cc2cn3cc(C4CC4)cc(N4CCOC4=O)c3n2)nn1 [Example I-216, N-((7-chloro-8-fluoroimidazo[1,5-a]pyridin-1-yl)methyl)-1-((6-cyclopropyl-8-(2-oxooxazolidin-3-yl)imidazo[1,2-a]pyridin-2-yl)methyl)-1H-1,2,3-triazole-4-carboxamide]	< 1
O=C(NCc1ncn2ccc(Cl)c(F)c12)c1cn(Cc2cn3ncc(C4CC4)cc3n2)nn1 [Example I-217, N-((7-chloro-8-fluoroimidazo[1,5-a]pyridin-1-yl)methyl)-1-((7-cyclopropylimidazo[1,2-b]pyridazin-2-yl)methyl)-1H-1,2,3-triazole-4-carboxamide]	1 to 10
